# Test results from US5189018A, “Method for reduction of central nervous system (CNS) edema resulting from head and spinal cord trauma” (Wayne State University, priority 1991, dated 1993).
# Non-standard residues stand in square brackets, D forms with d. Residues, ends and D or L forms follow the SMILES beside them. Met(O2) = CS(=O)(=O)CC[C@H](N)C(=O)O
# Key:
# cisplatin neuropathy = details: in vivo; cited from earlier work
# intracranial pressure = test system: intracranial pressure; set-up: species or system rat (Wistar); details: rat, in vivo
# Description: (§1) Applicant has developed a reliable physiologic model of potentially reversible, controlled fixed and closed-head injury in the laboratory rat (Wistar, Harlan Sprague-Dawley, Inc. Indianapolis, Ind.) that mimics many of the features of moderate concussion in humans. The model permits long term examination of subsequent cerebrovascular pathophysiological sequelae in conscious, unrestrained animals.
# A rat anesthetized with halothane was mounted in a prone position on the test board and the head was fixed in position by means of the bite plate 30 over which the upper incisors were engaged as shown in FIG. 1c. The board angle of recline and the axis of pendulum rotation were adjustable to permit a flat or angled (3°-5° ) strike on the chosen head impact site. The optimum applied force/angle was selected from the nomogram. The pendulum was raised to the desired angle and released through a quick-release mechanism to fall into impact with the head. Forces developed by this means ranged from 60 to 85 pounds. […]
# Intracranial pressures were determined in separate but identically treated animals. […] A Camino 431 miniature pressure sensor was inserted into the tubing and pressure was measured on Camino 420 Digital Pressure Monitor System. Intracranial pressure measurements were monitored from 5 minutes before and up to […] following head impaction. […]
# [1] = modified peptide less susceptible to enzymatic degradation, versus ACTH4-10; cited from earlier work
# [2] = test system: blood brain barrier permeability; set-up: species or system rat (Wistar); details: rat, in vivo
# Description: as §1
# A rat anesthetized with halothane was mounted in a prone position on the test board and the head was fixed in position by means of the bite plate 30 over which the upper incisors were engaged as shown in FIG. 1c. […]
# Brain vascular volume (BVS) and permeability were determined simultaneously utilizing modified methods of Rapoport, as described below (18). […] Moreover, estimates of BVS determined with either tracer are in agreement with published values obtained at more conventional time-intervals, e.g., two to ten minutes, after intravenous injection with an error of less than 4%. […]
# The experimental protocol for the measurement of blood-to-brain transfer of diffusion-limited substances such as sucrose involved surgical implantation of catheters, one in a femoral vein, the other in the opposite femoral artery, under halothane anesthesia. […] The behavior of the animal was carefully monitored. […]
# [3] = test system: dementias; alcoholic inebriation; details: human, in vivo; cited from earlier work
# [4] = Toxicity of subcutaneous doses in the rat model; assay type: in vivo; details: doses up to four times 27.2 ug (65-75 ug/kg), s.c.
structure (smiles),measurement,setting,value
"CS(=O)(=O)CC[C@H](N)C(=O)N[C@@H](CCC(=O)O)C(=O)N[C@@H](Cc1c[nH]cn1)C(=O)N[C@@H](Cc1ccccc1)C(=O)N[C@H](CCCCN)C(=O)N[C@@H](Cc1ccccc1)C(=O)O [Organon 2766, Met (O2) Glu-His-Phe-D-Lys-Phe] (H-[Met(O2)]EHF[dK]F-OH)",cytotoxic effect of cisplatin,cisplatin neuropathy,without adversely effecting
same,toxic effects,cisplatin neuropathy,No toxic effects were noted
same,ICP in uninjured animals,intracranial pressure,not different from control animals
same,half life in vivo,[1],longer half life
same,permeability of the blood-brain barrier at high dose,[2],dramatically increased
same,toxicity and side effects in humans,[3],non-toxic and had no serious side effects
same,lethality,[4],not lethal
